Consider 13 compounds from patent publication EP4653451A1, “POLYPEPTIDE COMPOUND AND USE THEREOF” (Chengdu New Radiomedicine Technology Co., Ltd., priority 2023, dated 2024).

In experiment [1] the target is T1, human recombinant FAP protein (Homo sapiens, UniProt Q12884).
T1 construct: purchased Acrobiosystems FAP-H82Q6
T1 sequence (Q12884 1-760): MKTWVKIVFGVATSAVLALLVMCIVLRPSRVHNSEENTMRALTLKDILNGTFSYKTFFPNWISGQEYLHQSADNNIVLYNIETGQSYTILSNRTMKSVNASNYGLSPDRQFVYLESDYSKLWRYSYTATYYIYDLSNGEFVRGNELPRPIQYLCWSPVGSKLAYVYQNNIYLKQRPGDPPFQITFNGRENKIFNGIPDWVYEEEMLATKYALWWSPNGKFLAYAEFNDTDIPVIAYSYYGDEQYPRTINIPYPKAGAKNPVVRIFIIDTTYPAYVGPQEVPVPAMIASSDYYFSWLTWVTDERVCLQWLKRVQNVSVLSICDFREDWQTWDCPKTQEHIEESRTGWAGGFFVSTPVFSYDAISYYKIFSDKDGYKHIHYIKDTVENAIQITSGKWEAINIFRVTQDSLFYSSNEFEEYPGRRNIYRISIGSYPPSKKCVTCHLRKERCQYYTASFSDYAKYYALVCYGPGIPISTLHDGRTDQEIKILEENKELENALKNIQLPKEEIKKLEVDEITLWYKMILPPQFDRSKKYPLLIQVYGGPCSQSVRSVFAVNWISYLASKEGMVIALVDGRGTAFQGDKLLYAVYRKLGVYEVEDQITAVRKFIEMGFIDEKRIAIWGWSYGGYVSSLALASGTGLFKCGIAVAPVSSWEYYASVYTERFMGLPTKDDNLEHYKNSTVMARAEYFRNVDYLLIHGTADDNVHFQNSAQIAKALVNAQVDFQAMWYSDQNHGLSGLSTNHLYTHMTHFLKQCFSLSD
Put plainly: Inhibitory activity against FAP protease activity (Z-Gly-Pro-AMC fluorescence). The format is biochemical. As to conditions: for inhibitory activity against FAP protease activity: in words. As for the experimental part: The human recombinant FAP protein (Acrobiosystems, FAP-H82Q6) was diluted to a 125 pM FAP working solution with an assay buffer (50 mM Tris-HCl, 1 M NaCl, 1 mg/mL BSA, pH 7.5), and the FAP substrate (Z-Gly-Pro-AMC (LEONBIO, 68542-93-8)) was diluted to a 150 µM substrate working solution with the assay buffer. 40 µl of FAP working solution and 20 µl of compounds at different concentrations (4-fold dilution) were taken, then 40 µl of substrate working solution was added, and the mixture was uniformly mixed on a shaker at room temperature for 1 min. The uniformly mixed mixture was reacted at room temperature in the dark for 90 min. The fluorescence value Ex = 380 nm/Em = 460 nm was read by using a microplate reader. The original data was saved, and the IC50 value of the compound was obtained by using the original data or the Inhibition% via calculation and analyzing the data with Graphpad PRISM.

Experiment [2] concerns the target T2, human recombinant DPP4 protein (Homo sapiens, UniProt P27487).
T2 construct: purchased Acrobiosystems DP4-H5211
Put plainly: Inhibitory activity against DPP4 protease activity (H-Gly-Pro-AMC fluorescence). In kind it is biochemical. The note with it: 125 pM DPP4 working solution, 90 min at room temperature. As to the method:
The human recombinant DPP4 protein (Acrobiosystems, DP4-H5211) was formulated into a 125 pM working solution with an assay buffer (20 mM Tris-HCl, 100 mM NaCl), and the DPP4 substrate (H-Gly-Pro-AMC.HBr (LEONBIO, 115035-46-6)) was diluted to a 250 µM DPP4 substrate working solution with the assay buffer. 40 µl of DPP4 working solution and 20 µl of compounds at different concentrations (4-fold dilution) were taken, then 40 µl of DPP4 substrate working solution was added, and the mixture was uniformly mixed on a shaker at room temperature for 1 min. The uniformly mixed mixture was reacted at room temperature in the dark for 90 min. Reading was made by microplate reader at excitation and emission wavelengths of 380 nm and 460 nm. The original data was saved, and the IC50 value of the compound was obtained by analyzing the data with Graphpad PRISM.

Setting [3] is: 125 pM FAP working solution, 90 min at room temperature, read-out: FAP IC50.

Where a name gives a salt, the structure may show the parent alone. Read-outs that look alike come from different tables or passages of the source. Numbered stars: 1 amine (or outer) side, 2 acyl side, 3 side chain; on linkers, the order of the positions; unused ones are H or OH. Bridge positions count the residues as written; N and C are the ends. Square brackets hold non-standard residues; d marks the D form. Peptide text beside a SMILES is read from it. * marks the point of attachment. TBMB(SCH2CH2NH-DOTA) = O=C(O)CN1CCN(CC(=O)O)CCN(CC(=O)NCCSCc2cc(C[*:1])cc(C[*:2])c2)CCN(CC(=O)O)CC1; X4 = CC(=O)NC[C@H](CSCc1cccc(C[*:1])c1)N[*:2]; X6 = NC[C@H](CSCc1cccc(C[*:1])c1)N[*:2]; 1Nal = N[C@@H](Cc1cccc2ccccc12)C(=O)O; d1Nal = N[C@H](Cc1cccc2ccccc12)C(=O)O; mXylylene = c1cc(C[*:1])cc(C[*:2])c1; Cha = N[C@@H](CC1CCCCC1)C(=O)O; d(β3hC) = N[C@H](CS)CC(=O)O; β3hC = N[C@@H](CS)CC(=O)O; Hexanoyl = CCCCCC(=O)*

T2 sequence (P27487 whole entry): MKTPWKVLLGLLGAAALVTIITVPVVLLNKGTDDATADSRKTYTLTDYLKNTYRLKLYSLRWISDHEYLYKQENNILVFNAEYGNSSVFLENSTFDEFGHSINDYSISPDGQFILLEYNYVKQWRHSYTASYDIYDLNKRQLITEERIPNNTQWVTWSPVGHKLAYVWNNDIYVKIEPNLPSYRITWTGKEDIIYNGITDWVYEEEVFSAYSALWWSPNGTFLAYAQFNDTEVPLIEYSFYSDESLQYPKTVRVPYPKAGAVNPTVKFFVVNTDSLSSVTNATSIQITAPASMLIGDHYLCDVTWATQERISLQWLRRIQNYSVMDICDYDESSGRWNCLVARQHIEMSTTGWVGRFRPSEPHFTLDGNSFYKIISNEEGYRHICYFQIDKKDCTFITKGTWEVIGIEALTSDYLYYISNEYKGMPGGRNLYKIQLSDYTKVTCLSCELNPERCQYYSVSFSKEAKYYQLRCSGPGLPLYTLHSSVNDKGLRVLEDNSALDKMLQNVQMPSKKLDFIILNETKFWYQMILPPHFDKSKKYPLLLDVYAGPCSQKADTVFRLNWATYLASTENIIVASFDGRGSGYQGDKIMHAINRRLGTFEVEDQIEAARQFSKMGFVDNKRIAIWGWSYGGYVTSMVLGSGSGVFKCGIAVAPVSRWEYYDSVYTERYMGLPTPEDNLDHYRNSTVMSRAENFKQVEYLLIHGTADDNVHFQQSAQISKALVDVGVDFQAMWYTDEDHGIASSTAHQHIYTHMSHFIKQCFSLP

As usually defined, the IC50 is the concentration needed to halve the response being measured. Regarding `CCCCCC(=O)N[C@H]1CSCc2cccc(c2)CSC[C@@H](CC(=O)N[C@@H](CC(=O)O)C(N)=O)NC(=O)[C@H](Cc2ccccc2)NC(=O)[C@H](CCC(N)=O)NC(=O)[C@H]([C@@H](C)O)NC(=O)[C@@H]2CCCN2C(=O)[C@@H]2CCCN2C1=O` [Compound 1, Hex-Cys-Pro-Pro-Thr-Gln-Phe-beta-HomoCys-Asp-NH2 (Cys bridge DBMB) trifluoroacetate] (Hexanoyl-CPPTQF[β3hC]D-NH2; linker 1-7 via mXylylene), the IC50 in experiment [1] was 2.91 nM; in experiment [2], above 10 µM.
The like results for `CCCCCC(=O)N[C@H]1CSCc2cccc(c2)CSC[C@@H](CC(=O)O)NC(=O)[C@H](Cc2ccccc2)NC(=O)[C@H](CCC(N)=O)NC(=O)[C@H]([C@@H](C)O)NC(=O)[C@@H]2CCCN2C(=O)[C@@H]2CCCN2C1=O` [Compound 2, Hex-Cys-Pro-Pro-Thr-Gln-Phe-beta-HomoCys-OH (Cys bridge DBMB) trifluoroacetate] were, in that order, 4.24 nM and above 10 µM.
Regarding `CCCCCC(=O)N[C@H]1CSCc2cccc(c2)CSC[C@@H](C(=O)O)NC(=O)[C@H](CC2CCCCC2)NC(=O)[C@H](CCC(N)=O)NC(=O)[C@H]([C@@H](C)O)NC(=O)[C@@H]2CCCN2C(=O)[C@@H]2CCCN2C1=O` [Compound 3, Hex-Cys-Pro-Pro-Thr-Gln-Cha-Cys-OH (Cys bridge DBMB) trifluoroacetate] (Hexanoyl-CPPTQ[Cha]C-OH; linker 1-7 via mXylylene), the concentration for half-maximal inhibition (IC50) in experiment [1] was 25.1 nM; in experiment [2], above 10 µM.
The like results for `CCCCCC(=O)N[C@H]1CSCc2cccc(c2)CSC[C@@H](C(=O)O)NC(=O)[C@H](Cc2ccccc2)NC(=O)[C@H](CCC(N)=O)NC(=O)[C@H]([C@@H](C)O)NC(=O)[C@@H]2CCCN2C(=O)[C@@H]2CCCN2C1=O` [Compound 3BP-4186, reference compound] were, in that order, 98.8 nM and above 10 µM.
Take `CCCCCC(=O)N[C@H]1CSCc2cccc(c2)CSC[C@@H](CN)NC(=O)[C@H](Cc2ccccc2)NC(=O)[C@H](CCC(N)=O)NC(=O)[C@H]([C@@H](C)O)NC(=O)[C@@H]2CCCN2C(=O)[C@@H]2CCCN2C1=O` [Compound 4, Hex-Cys-Pro-Pro-Thr-Gln-Phe-Cys-CH2NH2 (Cys bridge DBMB) trifluoroacetate] (Hexanoyl-CPPTQF; linker 1-C via X6): the half-maximal inhibitory concentration (IC50) in experiment [1] was 11.3 nM.
In the case of `CCCCCC(=O)N[C@H]1CSCc2cccc(c2)CSC[C@@H](CNC(C)=O)NC(=O)[C@H](Cc2ccccc2)NC(=O)[C@H](CCC(N)=O)NC(=O)[C@H]([C@@H](C)O)NC(=O)[C@@H]2CCCN2C(=O)[C@@H]2CCCN2C1=O` [Compound 5, Hex-Cys-Pro-Pro-Thr-Gln-Phe-Cys-CH2NHAc (Cys bridge DBMB) trifluoroacetate] (Hexanoyl-CPPTQF; linker 1-C via X4), the results for the IC50 in experiment [1] and in experiment [2] were 1.8 nM and above 10 µM, respectively.
On to `CCCCCC(=O)N[C@@H]1CSCc2cc(CSCCNC(=O)CN3CCN(CC(=O)O)CCN(CC(=O)O)CCN(CC(=O)O)CC3)cc(c2)CSC[C@@H](CC(=O)O)NC(=O)[C@H](Cc2cccc3ccccc23)NC(=O)[C@H](CCC(N)=O)NC(=O)[C@H]([C@@H](C)O)NC(=O)[C@@H]2CCCN2C(=O)[C@@H]2CCCN2C1=O` [Compound 78, Hexanoyl-(D-Cys(tMeBn(DOTA-AET))-Pro-Pro-Thr-Gln-1Nal-betahomoCys)-OH] (Hexanoyl-[dC]PPTQ[1Nal][β3hC]-OH; linker 1-7 via TBMB(SCH2CH2NH-DOTA)), for which the half-inhibitory concentration (IC50) in experiment [1] (setting [3]) was found to be 14.7 nM. Further, in experiment [1], the “inhibitory activity against FAP protease activity” value (“inhibitory activity” for short) is “good inhibitory activity”.
In the case of `CCCCCC(=O)N[C@H]1CSCc2cc(CSCCNC(=O)CN3CCN(CC(=O)O)CCN(CC(=O)O)CCN(CC(=O)O)CC3)cc(c2)CSC[C@@H](CC(=O)O)NC(=O)[C@H](Cc2cccc3ccccc23)NC(=O)[C@H](CCC(N)=O)NC(=O)[C@H]([C@@H](C)O)NC(=O)[C@@H]2CCCN2C(=O)[C@H]2CCCN2C1=O` [Compound 79, Hexanoyl-(Cys(tMeBn(DOTA-AET))-D-Pro-Pro-Thr-Gln-1Nal-betahomoCys)-OH] (Hexanoyl-C[dP]PTQ[1Nal][β3hC]-OH; linker 1-7 via TBMB(SCH2CH2NH-DOTA)), the half-inhibitory concentration (IC50) in experiment [1] (setting [3]) is above 5000 nM.
Still for that read-out and setting: as for `CCCCCC(=O)N[C@H]1CSCc2cc(CSCCNC(=O)CN3CCN(CC(=O)O)CCN(CC(=O)O)CCN(CC(=O)O)CC3)cc(c2)CSC[C@@H](CC(=O)O)NC(=O)[C@H](Cc2cccc3ccccc23)NC(=O)[C@H](CCC(N)=O)NC(=O)[C@H]([C@@H](C)O)NC(=O)[C@H]2CCCN2C(=O)[C@@H]2CCCN2C1=O` [Compound 80, Hexanoyl-(Cys(tMeBn(DOTA-AET))-Pro-D-Pro-Thr-Gln-1Nal-betahomoCys)-OH] (Hexanoyl-CP[dP]TQ[1Nal][β3hC]-OH; linker 1-7 via TBMB(SCH2CH2NH-DOTA)), the figure is 566 nM.
For `CCCCCC(=O)N[C@H]1CSCc2cc(CSCCNC(=O)CN3CCN(CC(=O)O)CCN(CC(=O)O)CCN(CC(=O)O)CC3)cc(c2)CSC[C@@H](CC(=O)O)NC(=O)[C@H](Cc2cccc3ccccc23)NC(=O)[C@H](CCC(N)=O)NC(=O)[C@@H]([C@H](C)O)NC(=O)[C@@H]2CCCN2C(=O)[C@@H]2CCCN2C1=O` [Compound 81, Hexanoyl-(Cys(tMeBn(DOTA-AET))-Pro-Pro-D-Thr-Gln-1Nal-betahomoCys)-OH] (Hexanoyl-CPP[dT]Q[1Nal][β3hC]-OH; linker 1-7 via TBMB(SCH2CH2NH-DOTA)), in experiment [1] (setting [3]), the half-maximal inhibitory concentration (IC50) amounted to 70.6 nM. Besides, the “inhibitory activity” value in experiment [1] was “good inhibitory activity”.
`CCCCCC(=O)N[C@H]1CSCc2cc(CSCCNC(=O)CN3CCN(CC(=O)O)CCN(CC(=O)O)CCN(CC(=O)O)CC3)cc(c2)CSC[C@@H](CC(=O)O)NC(=O)[C@H](Cc2cccc3ccccc23)NC(=O)[C@@H](CCC(N)=O)NC(=O)[C@H]([C@@H](C)O)NC(=O)[C@@H]2CCCN2C(=O)[C@@H]2CCCN2C1=O` [Compound 82, Hexanoyl-(Cys(tMeBn(DOTA-AET))-Pro-Pro-Thr-D-Gln-1Nal-betahomoCys)-OH] (Hexanoyl-CPPT[dQ][1Nal][β3hC]-OH; linker 1-7 via TBMB(SCH2CH2NH-DOTA)): the IC50 in experiment [1] (setting [3]) came to 209 nM.
The same measure, in the same setting: to `CCCCCC(=O)N[C@H]1CSCc2cc(CSCCNC(=O)CN3CCN(CC(=O)O)CCN(CC(=O)O)CCN(CC(=O)O)CC3)cc(c2)CSC[C@@H](CC(=O)O)NC(=O)[C@@H](Cc2cccc3ccccc23)NC(=O)[C@H](CCC(N)=O)NC(=O)[C@H]([C@@H](C)O)NC(=O)[C@@H]2CCCN2C(=O)[C@@H]2CCCN2C1=O` [Compound 83, Hexanoyl-(Cys(tMeBn(DOTA-AET))-Pro-Pro-Thr-Gln-D-1Nal-betahomoCys)-OH] (Hexanoyl-CPPTQ[d1Nal][β3hC]-OH; linker 1-7 via TBMB(SCH2CH2NH-DOTA)) belongs 1040 nM.
Take `CCCCCC(=O)N[C@H]1CSCc2cc(CSCCNC(=O)CN3CCN(CC(=O)O)CCN(CC(=O)O)CCN(CC(=O)O)CC3)cc(c2)CSC[C@H](CC(=O)O)NC(=O)[C@H](Cc2cccc3ccccc23)NC(=O)[C@H](CCC(N)=O)NC(=O)[C@H]([C@@H](C)O)NC(=O)[C@@H]2CCCN2C(=O)[C@@H]2CCCN2C1=O` [Compound 84, Hexanoyl-(Cys(tMeBn(DOTA-AET))-Pro-Pro-Thr-Gln-1Nal-D-betahomoCys)-OH] (Hexanoyl-CPPTQ[1Nal][d(β3hC)]-OH; linker 1-7 via TBMB(SCH2CH2NH-DOTA)): the IC50 in experiment [1] (setting [3]) was 6.7 nM. Also, the “inhibitory activity” value in experiment [1] was “good inhibitory activity”.
